# According to patent US20250340577A1, “BETA-LACTOMASE INHIBITORS AND USES THEREOF” (Case Western Reserve University, priority 2021, published 2025):
# Like-named read-outs stand apart in the source and are kept apart here.
# Tests used:
# Type in all cases: cell-based
# [1] = tested on: E. coli pLTCF2; assay: MIC with cefepime, agar microdilution, CLSI; details: compound fixed at 4 ug/ml
# Description: (§1) Minimum inhibitory concentration (MIC) of MB076 and derivatives (PCF_038-043) in combination with cefepime.
# (§2) MICs were determined by the Agar microdilution method, following CLSI guidelines. Compounds were tested at fixed concentration of 4 ug/ml in combination with cefepime.
# [2] = tested on: K. pneumoniae original KPC-2; assay: MIC with cefepime, agar microdilution, CLSI; details: compound fixed at 4 ug/ml
# Description: as §1, §2
# [3] = tested on: E. coli DH10B pBC-SK P99; assay: MIC with cefepime, agar microdilution, CLSI; details: compound fixed at 4 ug/ml
# Description: as §1, §2
# [4] = tested on: E. coli 29838; assay: MIC with cefepime, agar microdilution, CLSI; details: compound fixed at 4 ug/ml; CTX-M-14, TEM-1
# Description: as §1, §2
# [5] = tested on: E. coli DH10B pBC-SK SHV-2; assay: MIC with cefepime, agar microdilution, CLSI; details: compound fixed at 4 ug/ml
# Description: as §1, §2
# [6] = tested on: K. pneumoniae ST258 B5; assay: MIC with cefepime, agar microdilution, CLSI; details: compound fixed at 4 ug/ml; KPC-2
# Description: as §1, §2
# [7] = tested on: A. baumannii 0057; assay: MIC with cefepime, agar microdilution, CLSI; details: compound fixed at 4 ug/ml; ADC-7
# Description: as §1, §2
# [8] = tested on: E. coli ATCC BAA202; assay: MIC with cefepime, agar microdilution, CLSI; details: compound fixed at 4 ug/ml; SHV-1
# Description: as §1, §2
# [9] = tested on: K. pneumoniae 253; assay: MIC with cefepime, agar microdilution, CLSI; details: compound fixed at 4 ug/ml; TEM-12, SHV-5, CTX-M
# Description: as §1, §2
# [10] = tested on: E. coli pLTCF1; assay: MIC with cefepime, agar microdilution, CLSI; details: compound fixed at 4 ug/ml; CTX-M group 9
# Description: as §1, §2
# [11] = tested on: E. coli DH10B pBC-SK PDC-3; assay: MIC with cefepime, agar microdilution, CLSI; details: compound fixed at 4 ug/ml
# Description: as §1, §2
# [12] = tested on: K. pneumoniae 427; assay: MIC with cefepime, agar microdilution, CLSI; details: compound fixed at 4 ug/ml; TEM-1, SHV-1, CTX-M-3
# Description: as §1, §2
# [13] = tested on: K. pneumoniae ST17; assay: MIC with cefepime, agar microdilution, CLSI; details: compound fixed at 4 ug/ml; KPC-2, TEM, SHV, CTX-M-Group 1
# Description: as §1, §2
# [14] = tested on: E. coli DH10B pBC-SK control; assay: MIC with cefepime, agar microdilution, CLSI; details: compound fixed at 4 ug/ml; B-lactamases none
# Description: as §1, §2
# [15] = tested on: E. coli DH10B pBC-SK KPC-2; assay: MIC with cefepime, agar microdilution, CLSI; details: compound fixed at 4 ug/ml
# Description: as §1, §2
# [16] = tested on: K. pneumoniae 34700; assay: MIC with cefepime, agar microdilution, CLSI; details: compound fixed at 4 ug/ml; CTX-M-15, SHV, TEM
# Description: as §1, §2
# [17] = tested on: K. pneumoniae 266; assay: MIC with cefepime, agar microdilution, CLSI; details: compound fixed at 4 ug/ml; SHV-5
# Description: as §1, §2
# [18] = tested on: K. pneumoniae 255; assay: MIC with cefepime, agar microdilution, CLSI; details: compound fixed at 4 ug/ml; TEM-1, SHV-2
# Description: as §1, §2
# [19] = tested on: K. pneumoniae ST258 C3; assay: MIC with cefepime, agar microdilution, CLSI; details: compound fixed at 4 ug/ml; KPC-3
# Description: as §1, §2
# [20] = tested on: K. pneum KPC-Kpn; assay: MIC of antibiotics in combination with 10 μg/mL of ceftolozane-like BATSIs; details: FEP + 10 μg/mL compound
# [21] = tested on: blaPDC-3E221K; assay: as above; details: CAZ + 10 μg/mL compound
# [22] = tested on: blaCMY-2; assay: as above; details: CAZ + 10 μg/mL compound
# [23] = tested on: 18SH; assay: as above; details: CAZ + 10 μg/mL compound
# [24] = tested on: blaADC-7; assay: as above; details: CAZ + 10 μg/mL compound
# [25] = tested on: K. pneum blaKPC-2; assay: as above; details: FEP + 10 μg/mL compound
# [26] = tested on: blaCTXM-9; assay: as above; details: FEP + 10 μg/mL compound
# [27] = tested on: Klebsiella pneumonia/FDA-CDC AR-BANK#0097; assay: MIC of MB076 alone or in combination with cefepime or meropenem; details: Klebsiella pneumoniae
# Description: as §2
# [28] = tested on: Klebsiella pneumonia/BAA-1705; assay: as above; details: Klebsiella pneumoniae, BAA1705
# Description: as §2
# [29] = tested on: Klebsiella pneumonia/FDA-CDC AR-BANK#0098; assay: as above; details: Klebsiella pneumoniae
# Description: as §2
SMILES,MIC of cefepime in combination with compound [1],MIC of cefepime in combination with compound [2],MIC of cefepime in combination with compound [3],MIC of cefepime in combination with compound [4],MIC of cefepime in combination with compound [5],MIC of cefepime in combination with compound [6],MIC of cefepime in combination with compound [7],MIC of cefepime in combination with compound [8],MIC of cefepime in combination with compound [9],MIC of cefepime in combination with compound [10],MIC of cefepime in combination with compound [11],MIC of cefepime in combination with compound [12],MIC of cefepime in combination with compound [13],MIC of cefepime in combination with compound [14],MIC of cefepime in combination with compound [15],MIC of cefepime in combination with compound [16],MIC of cefepime in combination with compound [17],MIC of cefepime in combination with compound [18],MIC of cefepime in combination with compound [19],further results
O=C(CS)N[C@@H](Cn1cc(C(=O)O)nn1)B(O)O [PCF_043],< 0.25 mg/L,1 mg/L,1 mg/L,0.5 mg/L,< 0.25 mg/L,16 mg/L,32 mg/L,1 mg/L,4 mg/L,1 mg/L,< 0.25 mg/L,1 mg/L,32 mg/L,< 0.25 mg/L,1 mg/L,4 mg/L,< 0.25 mg/L,4 mg/L,2 mg/L,
Cc1nnc(SCC(=O)N[C@@H](Cn2cc(C(=O)O)nn2)B(O)O)[nH]1 [PCF_038],< 0.25 mg/L,< 0.25 mg/L,< 0.25 mg/L,< 0.25 mg/L,< 0.25 mg/L,16 mg/L,64 mg/L,0.5 mg/L,2 mg/L,< 0.25 mg/L,< 0.25 mg/L,< 0.25 mg/L,32 mg/L,< 0.25 mg/L,< 0.25 mg/L,1 mg/L,< 0.25 mg/L,2 mg/L,0.5 mg/L,
O=C(CSC1=NCCS1)NC(Cn1cc(C(=O)O)nn1)B(O)O (centres unmarked) [PCF_040],< 0.25 mg/L,2 mg/L,< 0.25 mg/L,0.5 mg/L,0.5 mg/L,32 mg/L,32 mg/L,2 mg/L,4 mg/L,0.5 mg/L,< 0.25 mg/L,1 mg/L,32 mg/L,< 0.25 mg/L,1 mg/L,4 mg/L,< 0.25 mg/L,2 mg/L,2 mg/L,
CC(C)(O/N=C(\C(=O)NCB(O)O)c1nsc(N)n1)C(=O)O [PCF_013],,,,,,,,,,,,,,,,,,,,MIC values of antibiotics in combination with 10 μg/mL of compounds [20]: 16 mg/L; MIC values of antibiotics in combination with 10 μg/mL of compounds [21]: 8 mg/L; MIC values of antibiotics in combination with 10 μg/mL of compounds [22]: 64 mg/L; MIC values of antibiotics in combination with 10 μg/mL of compounds [23]: 64 mg/L; MIC values of antibiotics in combination with 10 μg/mL of compounds [24]: 4 mg/L; MIC values of antibiotics in combination with 10 μg/mL of compounds [25]: 16 mg/L; MIC values of antibiotics in combination with 10 μg/mL of compounds [26]: 4 mg/L
"C[C@@H](O)[C@H]1C(=O)N2C(C(=O)O)=C(S[C@@H]3CN[C@H](C(=O)N(C)C)C3)[C@H](C)[C@H]12 [Meropenem, meropenem]",,,,,,,,,,,,,,,,,,,,"MIC ([27]; single agent, read-out: MIC): > 32 mg/L; MIC ([28]; single agent, read-out: MIC): 32 mg/L; MIC ([29]; single agent, read-out: MIC): 16 mg/L"
O=C(CSc1ccccn1)N[C@@H](Cn1cc(C(=O)O)nn1)B(O)O [PCF_042],< 0.25 mg/L,< 0.25 mg/L,< 0.25 mg/L,< 0.25 mg/L,< 0.25 mg/L,16 mg/L,64 mg/L,< 0.25 mg/L,,< 0.25 mg/L,< 0.25 mg/L,< 0.25 mg/L,32 mg/L,< 0.25 mg/L,,1 mg/L,< 0.25 mg/L,2 mg/L,0.5 mg/L,
CN(C)c1cc(NC(=O)CNC(C)(C)C)c(O)c2c1C[C@H]1C[C@H]3[C@H](N(C)C)C(O)=C(C(N)=O)C(=O)[C@@]3(O)C(O)=C1C2=O [Tigecycline],,,,,,,,,,,,,,,,,,,,MIC [27]: 4 mg/L; MIC [28]: 2 mg/L; MIC [29]: 1 mg/L
O=C(CNn1cnnc1S)N[C@@H](Cn1cc(C(=O)O)nn1)B(O)O [PCF_039],< 0.25 mg/L,0.5 mg/L,< 0.25 mg/L,< 0.25 mg/L,< 0.25 mg/L,4 mg/L,32 mg/L,< 0.25 mg/L,1 mg/L,< 0.25 mg/L,< 0.25 mg/L,< 0.25 mg/L,16 mg/L,< 0.25 mg/L,< 0.25 mg/L,1 mg/L,< 0.25 mg/L,2 mg/L,< 0.25 mg/L,
O=C(CNc1nnc(S)s1)N[C@@H](Cn1cc(C(=O)O)nn1)B(O)O [PCF_041],< 0.25 mg/L,0.5 mg/L,< 0.25 mg/L,< 0.25 mg/L,< 0.25 mg/L,16 mg/L,64 mg/L,0.5 mg/L,2 mg/L,0.5 mg/L,< 0.25 mg/L,0.5 mg/L,16 mg/L,< 0.25 mg/L,< 0.25 mg/L,2 mg/L,< 0.25 mg/L,,1 mg/L,
CC(C)(O/N=C(\C(=O)N[C@@H](Cn1cc(C(=O)O)nn1)B(O)O)c1nsc(N)n1)C(=O)O [PCF_014],,,,,,,,,,,,,,,,,,,,MIC values of antibiotics in combination with 10 μg/mL of compounds [20]: 32 mg/L; MIC values of antibiotics in combination with 10 μg/mL of compounds [21]: 32 mg/L; MIC values of antibiotics in combination with 10 μg/mL of compounds [22]: 64 mg/L; MIC values of antibiotics in combination with 10 μg/mL of compounds [23]: 64 mg/L; MIC values of antibiotics in combination with 10 μg/mL of compounds [24]: 8 mg/L; MIC values of antibiotics in combination with 10 μg/mL of compounds [25]: 32 mg/L; MIC values of antibiotics in combination with 10 μg/mL of compounds [26]: 2 mg/L
